In patent publication US20020026053A1, “Novel 3-(substituted) -2- indolinones compounds and use thereof as inhibitors of protein kinase activity” (priority 1997, published 2002):

Tested on: FLK-1 receptor
Test: FLK-1 Assay (cellular/catalytic ELISA, VEGF-stimulated phosphotyrosine)
Format: cell-based
Parameters: concentration or dose not given beside the values
Conditions: protocol P.110
How it was run: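 Receptor phosphotyrosine ELISA: Flk-1-expressing NIH3T3 C7#3 cells, starved overnight in 0.1% FBS medium, received compound (1:200 final dilution, 0.5% DMSO) for 2 h at 37 °C, then VEGF. Anti-FLK-1-captured receptor was probed with anti-phosphotyrosine UB40 and peroxidase/ABTS read-out, relative to cells without compound.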

| Compound | Flk Kinase % Inhibition (P.110) |
| --- | --- |
| Cc1c(Br)cc(Br)c2c1C(=Cc1cccc(F)c1)C(=O)N2 [10736/H07] | 17.8% |
| Cc1c(Br)cc(Br)c2c1C(=Cc1ccccc1F)C(=O)N2 [10736/H08] | 15.8% |
| CCc1ccc(C=C2C(=O)Nc3c(Br)cc(Br)c(C)c32)cc1 [10736/H09] | 13.2% |
| COc1cccc(C=C2C(=O)Nc3c(Br)cc(Br)c(C)c32)c1 [10736/H10] | 2.1% |
| Cc1c(Br)cc(Br)c2c1C(=Cc1ccccc1Cl)C(=O)N2 [10736/H11] | 17.6% |
| CCOc1ccc(C=C2C(=O)Nc3c(Br)cc(Br)cc32)cc1 [10737/A02] | −5.5% |
| Cc1ccc(C=C2C(=O)Nc3c(Br)cc(Br)cc32)c(C)c1 [10737/A03] | −1.2% |
| O=C1Nc2c(Br)cc(Br)cc2C1=Cc1cc(F)ccc1F [10737/A04] | −0.4% |
| O=C1Nc2c(Br)cc(Br)cc2C1=Cc1cccc(F)c1F [10737/A05] | −2.0% |
| COc1ccc(C=C2C(=O)Nc3c(Br)cc(Br)cc32)cc1F [10737/A06] | −20.3% |
| Cc1ccc(C)c(C=C2C(=O)Nc3c(Br)cc(Br)cc32)c1 [10737/A07] | 3.4% |
| O=C1Nc2c(Br)cc(Br)cc2C1=Cc1ccc2ccccc2c1 [10737/A08] | 4.9% |
| O=C1Nc2c(Br)cc(Br)cc2C1=Cc1ccc(Oc2ccccc2)cc1 [10737/A09] | −10.1% |
| CC(C)(C)c1ccc(Oc2cccc(C=C3C(=O)Nc4c(Br)cc(Br)cc43)c2)cc1 [10737/A10] | 6.0% |
| O=C1Nc2c(Br)cc(Br)cc2C1=Cc1cccc(Oc2cccc(C(F)(F)F)c2)c1 [10737/A11] | 6.2% |
| CCOc1ccc(C=C2C(=O)Nc3ccc(I)cc32)cc1 [10737/B02] | −3.0% |
| Cc1ccc(C=C2C(=O)Nc3ccc(I)cc32)c(C)c1 [10737/B03] | 7.0% |
| O=C1Nc2ccc(I)cc2C1=Cc1cc(F)ccc1F [10737/B04] | −8.2% |
| O=C1Nc2ccc(I)cc2C1=Cc1cccc(F)c1F [10737/B05] | −4.6% |

| Compound | Flk Kinase % Inhibition (P.110) |
| --- | --- |
| COc1ccc(C=C2C(=O)Nc3ccc(I)cc32)cc1F [10737/B06] | 3.6% |
| Cc1ccc(C)c(C=C2C(=O)Nc3ccc(I)cc32)c1 [10737/B07] | 10.5% |
| O=C1Nc2ccc(I)cc2C1=Cc1ccc2ccccc2c1 [10737/B08] | 12.2% |
| O=C1Nc2ccc(I)cc2C1=Cc1ccc(Oc2ccccc2)cc1 [10737/B09] | 17.5% |
| CC(C)(C)c1ccc(Oc2cccc(C=C3C(=O)Nc4ccc(I)cc43)c2)cc1 [10737/B10] | 17.1% |
| O=C1Nc2ccc(I)cc2C1=Cc1cccc(Oc2cccc(C(F)(F)F)c2)c1 [10737/B11] | 12.8% |
| CCOc1ccc(C=C2C(=O)Nc3ccc(Br)c(C)c32)cc1 [10737/C02] | −2.9% |
| Cc1ccc(C=C2C(=O)Nc3ccc(Br)c(C)c32)c(C)c1 [10737/C03] | 10.1% |
| Cc1c(Br)ccc2c1C(=Cc1cc(F)ccc1F)C(=O)N2 [10737/C04] | −20.1% |
| Cc1c(Br)ccc2c1C(=Cc1cccc(F)c1F)C(=O)N2 [10737/C05] | −3.3% |
| COc1ccc(C=C2C(=O)Nc3ccc(Br)c(C)c32)cc1F [10737/C06] | 8.7% |
| Cc1ccc(C)c(C=C2C(=O)Nc3ccc(Br)c(C)c32)c1 [10737/C07] | 1.6% |
| Cc1c(Br)ccc2c1C(=Cc1ccc3ccccc3c1)C(=O)N2 [10737/C08] | 8.9% |
| Cc1c(Br)ccc2c1C(=Cc1ccc(Oc3ccccc3)cc1)C(=O)N2 [10737/C09] | 8.4% |
| Cc1c(Br)ccc2c1C(=Cc1cccc(Oc3ccc(C(C)(C)C)cc3)c1)C(=O)N2 [10737/C10] | 16.0% |
| Cc1c(Br)ccc2c1C(=Cc1cccc(Oc3cccc(C(F)(F)F)c3)c1)C(=O)N2 [10737/C11] | 13.3% |
| CCOc1ccc(C=C2C(=O)Nc3ccc(S(=O)(=O)NC)cc32)cc1 [10737/D02] | 10.6% |
| CNS(=O)(=O)c1ccc2c(c1)C(=Cc1ccc(C)cc1C)C(=O)N2 [10737/D03] | 12.1% |
| CNS(=O)(=O)c1ccc2c(c1)C(=Cc1cc(F)ccc1F)C(=O)N2 [10737/D04] | 12.0% |

| Compound | Flk Kinase % Inhibition (P.110) |
| --- | --- |
| CNS(=O)(=O)c1ccc2c(c1)C(=Cc1cccc(F)c1F)C(=O)N2 [10737/D05] | 8.9% |
| CNS(=O)(=O)c1ccc2c(c1)C(=Cc1ccc(OC)c(F)c1)C(=O)N2 [10737/D06] | 13.0% |
| CNS(=O)(=O)c1ccc2c(c1)C(=Cc1cc(C)ccc1C)C(=O)N2 [10737/D07] | 12.9% |
| CNS(=O)(=O)c1ccc2c(c1)C(=Cc1ccc3ccccc3c1)C(=O)N2 [10737/D08] | 15.3% |
| CNS(=O)(=O)c1ccc2c(c1)C(=Cc1ccc(Oc3ccccc3)cc1)C(=O)N2 [10737/D09] | 13.9% |
| CNS(=O)(=O)c1ccc2c(c1)C(=Cc1cccc(Oc3ccc(C(C)(C)C)cc3)c1)C(=O)N2 [10737/D10] | 23.2% |
| CNS(=O)(=O)c1ccc2c(c1)C(=Cc1cccc(Oc3cccc(C(F)(F)F)c3)c1)C(=O)N2 [10737/D11] | 17.2% |
| CCOc1ccc(C=C2C(=O)Nc3ccc(S(=O)(=O)Nc4ccc(C(F)(F)F)cc4)cc32)cc1 [10737/E02] | 14.3% |
| Cc1ccc(C=C2C(=O)Nc3ccc(S(=O)(=O)Nc4ccc(C(F)(F)F)cc4)cc32)c(C)c1 [10737/E03] | 17.9% |
| O=C1Nc2ccc(S(=O)(=O)Nc3ccc(C(F)(F)F)cc3)cc2C1=Cc1cc(F)ccc1F [10737/E04] | 16.1% |
| O=C1Nc2ccc(S(=O)(=O)Nc3ccc(C(F)(F)F)cc3)cc2C1=Cc1cccc(F)c1F [10737/E05] | 14.9% |
| COc1ccc(C=C2C(=O)Nc3ccc(S(=O)(=O)Nc4ccc(C(F)(F)F)cc4)cc32)cc1F [10737/E06] | 11.1% |
| Cc1ccc(C)c(C=C2C(=O)Nc3ccc(S(=O)(=O)Nc4ccc(C(F)(F)F)cc4)cc32)c1 [10737/E07] | 20.1% |
| O=C1Nc2ccc(S(=O)(=O)Nc3ccc(C(F)(F)F)cc3)cc2C1=Cc1ccc2ccccc2c1 [10737/E08] | 21.3% |
| O=C1Nc2ccc(S(=O)(=O)Nc3ccc(C(F)(F)F)cc3)cc2C1=Cc1ccc(Oc2ccccc2)cc1 [10737/E09] | 11.9% |
| CC(C)(C)c1ccc(Oc2cccc(C=C3C(=O)Nc4ccc(S(=O)(=O)Nc5ccc(C(F)(F)F)cc5)cc43)c2)cc1 [10737/E10] | 18.9% |
| O=C1Nc2ccc(S(=O)(=O)Nc3ccc(C(F)(F)F)cc3)cc2C1=Cc1cccc(Oc2cccc(C(F)(F)F)c2)c1 [10737/E11] | 18.3% |
| CCOc1ccc(C=C2C(=O)Nc3ccc(S(=O)(=O)N4CCOCC4)cc32)cc1 [10737/F02] | 15.1% |
| Cc1ccc(C=C2C(=O)Nc3ccc(S(=O)(=O)N4CCOCC4)cc32)c(C)c1 [10737/F03] | 16.3% |
